Reference: paper PMC9967275, “Screening the Pathogen Box to Discover and Characterize New Cruzain and TbrCatL Inhibitors” (Pathogens, 2023)

Key:
TbrCatL = target: T1, TbrCatL (Trypanosoma brucei rhodesiense, UniProt Q95PM0); experiment: TbrCatL enzymatic inhibition assay (cleavage of fluorogenic substrate Z-FR-AMC); assay type: biochemical; settings: for TbrCatL Inhibition 0’: 0’ (no pre-incubation); for TbrCatL Inhibition 0’ / TbrCatL Inhibition 10’: sheet Screening results; for TbrCatL Inhibition 10’: 10’ (pre-incubation); for TbrCatL 0’ Inhibition: 0’ (pre-incubation time); for TbrCatL 0’ Inhibition / TbrCatL 10’ Inhibition: sheet "Screening results"; for TbrCatL 10’ Inhibition: 10’ (pre-incubation time)
T1 construct: Conor Caffrey (University of California San Diego)
T1 sequence (Q95PM0 entry or part of it): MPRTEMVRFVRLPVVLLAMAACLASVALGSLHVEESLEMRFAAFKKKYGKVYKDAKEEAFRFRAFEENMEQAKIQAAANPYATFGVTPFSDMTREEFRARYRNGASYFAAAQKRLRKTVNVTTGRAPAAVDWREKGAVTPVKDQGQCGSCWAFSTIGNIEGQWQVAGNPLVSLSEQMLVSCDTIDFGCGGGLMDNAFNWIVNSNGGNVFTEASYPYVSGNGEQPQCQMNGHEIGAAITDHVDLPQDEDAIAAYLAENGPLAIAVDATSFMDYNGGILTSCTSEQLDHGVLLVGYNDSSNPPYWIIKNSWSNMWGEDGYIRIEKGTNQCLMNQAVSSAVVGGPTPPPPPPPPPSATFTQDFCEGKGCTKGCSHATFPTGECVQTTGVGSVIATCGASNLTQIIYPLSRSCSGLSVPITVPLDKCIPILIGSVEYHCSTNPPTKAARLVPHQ
Method: (§1) Allison Doak and Prof. Brian Shoichet (University of California San Francisco, San Francisco, CA, USA) and Prof. Conor Caffrey (University of California San Diego, San Diego, CA, USA) generously provided recombinant cruzain and TbrCatL, respectively. In vitro activity of proteases cruzain and TbrCatL was assayed as previously described. Briefly, enzyme activity was measured by monitoring the cleavage of the fluorogenic substrate […] (Z-FR-AMC) at 25 °C. Fluorescence was monitored at 340/440 nm (excitation/emission) over 5–7 min in a Synergy2 Biotek plate reader. […] DMSO and 1 μM E-64 were employed as negative and positive controls, respectively, in all assays. Two conditions were employed for both enzymes: 10′ pre-incubation of the enzyme in the presence of the compound (10′ inc) and no pre-incubation (0′). Reported values correspond to the mean and standard error of the mean (SEM) and all analyses were performed using GraphPad Prism 6.0.
(§2) For the initial screening, compounds were assayed at 5 μM. […] IC50 curves were obtained from a non-linear fit of at least seven distinct compound concentrations, in triplicate. Reported IC50 values are the mean and SEM of two independent measurements.

cruzain = cruzain (Trypanosoma cruzi, UniProt P25779); experiment: biochemical; settings: for Cruzain Inhibition 0’: 0’ (no pre-incubation); for Cruzain Inhibition 0’ / Cruzain Inhibition 10’: sheet Screening results; for Cruzain Inhibition 10’: 10’ (pre-incubation); for Cruzain 0’ Inhibition: 0’ (pre-incubation time); for Cruzain 0’ Inhibition / Cruzain 10’ Inhibition: sheet "Screening results"; for Cruzain 10’ Inhibition: 10’ (pre-incubation time)
Sequence of cruzain (P25779 123-337 limits assumed): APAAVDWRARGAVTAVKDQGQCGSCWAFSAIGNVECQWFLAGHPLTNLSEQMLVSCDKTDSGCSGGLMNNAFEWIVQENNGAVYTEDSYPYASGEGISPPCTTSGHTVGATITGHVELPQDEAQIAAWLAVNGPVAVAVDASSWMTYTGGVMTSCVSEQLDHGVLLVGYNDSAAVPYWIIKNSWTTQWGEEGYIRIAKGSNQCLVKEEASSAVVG
Method: as §1, §2
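Further: at 5 µM compound concentration.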

| SMILES | TbrCatL Inhibition 0’ (TbrCatL) [%] | TbrCatL Inhibition 10’ (TbrCatL) [%] | Cruzain Inhibition 0’ (cruzain) [%] | Cruzain Inhibition 10’ (cruzain) [%] | TbrCatL 0’ Inhibition (TbrCatL) [%] | TbrCatL 10’ Inhibition (TbrCatL) [%] | Cruzain 0’ Inhibition (cruzain) [%] | Cruzain 10’ Inhibition (cruzain) [%] |
| --- | --- | --- | --- | --- | --- | --- | --- | --- |
| O[C@@H](c1cc(C(F)(F)F)nc2c(C(F)(F)F)cccc12)[C@H]1CCCCN1 [MMV000016] | 2.4 | -2.6 | -5.4 | -9 | – | – | – | – |
| COc1cc(N[C@@H](C)CCCN)c2ncccc2c1 [MMV000023] | 9 | 5 | 2.8 | 6.4 | – | – | – | – |
| N=C(N)c1ccc(OCCCCCOc2ccc(C(=N)N)cc2)cc1 [MMV000062] | 3 | -3 | 19 | 13 | – | – | – | – |
| CCN(CC)CCCCCCNc1cc(OC)cc2c(C)ccnc12 [MMV000063] | 2.7 | 5.6 | 16 | 3 | – | – | – | – |
| O=S(=O)(c1ccc(Cl)cc1)N1CCN(C(=S)NCc2ccco2)CC1 [MMV000858] | 0.9 | 6 | 8 | 13 | – | – | – | – |
| COc1cccc2c(C)nc(N=C(N)N)nc12 [MMV000907] | 32 | 23 | 9.5 | 25 | – | – | – | – |
| CCCS(=O)(=O)N1CCC(CO)(Cc2ccccc2C(F)(F)F)CC1 [MMV001059] | – | – | – | – | -3.7 | -0.8 | 0.9 | -1.3 |
| COC(=O)C1=C(C)NC(C)=C(C(=O)OC(C)C)[C@H]1c1cccc2nonc12 [MMV001493] | 1.3 | -2.4 | 26 | 12 | – | – | – | – |
| C[C@H]1CS(=O)(=O)CCN1/N=C/c1ccc([N+](=O)[O-])o1 [MMV001499] | – | – | – | – | 5 | 11 | 7 | 7.5 |
| NCCC[C@@](N)(C(=O)O)C(F)F [MMV001625] | 2 | -1.9 | 20 | 7 | – | – | – | – |
| O=C(C1CCCCC1)N1CC(=O)N2CCc3ccccc3[C@@H]2C1 [MMV002529] | 5 | 5.7 | 22 | 18 | – | – | – | – |
| CCN(CC)C(=O)N1CCN(C)CC1 [MMV002816] | – | – | – | – | -0.5 | 0.1 | 2.5 | 1.9 |
| Oc1c(I)cc(I)c2cccnc12 [MMV002817] | 0.5 | -24 | 0.2 | -16 | – | – | – | – |
| COC(=O)Nc1nc2ccc(C(=O)c3ccccc3)cc2[nH]1 [MMV003152] | 4.7 | -5.3 | 3.3 | -1.4 | – | – | – | – |
| CN1CCCN(C(c2ccccc2)c2ccc(Cl)cc2)CC1 (stereo not shown) [MMV004168] | – | – | – | – | -5.4 | 1.8 | 3.6 | 6.6 |
| O=C1Nc2ccc(Br)cc2C12NCCc1c2[nH]c2ccccc12 (stereo not shown) [MMV006239] | 2.6 | 2.6 | 7.5 | 2.2 | – | – | – | – |
| Cc1ccc2[nH]c3c(NCCN(C)C)ncnc3c2c1 [MMV006372] | 10 | 14 | 27 | 21 | – | – | – | – |

| SMILES | TbrCatL Inhibition 0’ (TbrCatL) [%] | TbrCatL Inhibition 10’ (TbrCatL) [%] | Cruzain Inhibition 0’ (cruzain) [%] | Cruzain Inhibition 10’ (cruzain) [%] | TbrCatL 0’ Inhibition (TbrCatL) [%] | TbrCatL 10’ Inhibition (TbrCatL) [%] | Cruzain 0’ Inhibition (cruzain) [%] | Cruzain 10’ Inhibition (cruzain) [%] |
| --- | --- | --- | --- | --- | --- | --- | --- | --- |
| COc1cc2ncnc(NC3CCN(Cc4ccccc4)CC3)c2cc1OC [MMV006741] | 15 | 5.4 | 8 | 10 | – | – | – | – |
| Cc1cc(Cl)c(S(=O)(=O)N2CCCC2)cc1OCC(=O)NC1CCCCC1 [MMV006833] | – | – | – | – | 1.6 | 11 | 3 | 8 |
| CN(C)c1cc(NC(=O)Nc2ccccc2)c2ccccc2n1 [MMV006901] | 9 | 20 | 13 | 24 | – | – | – | – |
| Cc1cc(NC(=O)c2ccc(S(=O)(=O)N(Cc3ccccc3)C(C)C)cc2)no1 [MMV007133] | – | – | – | – | -7 | -11 | -3 | -4.5 |
| COc1cc(OC)cc(C(=O)NCC2Cc3cc(Cl)cc(-c4ccncc4)c3O2)c1 (stereo not shown) [MMV007471] | – | – | – | – | 0.4 | -2 | 1.1 | 6 |
| Cc1cc(C)n(-c2ccc(NC(=O)C3CCN(Cc4cnc(C)s4)CC3)cc2)n1 [MMV007625] | – | – | – | – | 1.5 | -1.8 | 5 | 1.6 |
| CCOc1ccc(-c2nc(NC(=O)CS(=O)(=O)c3ccccc3)sc2C)cc1 [MMV007638] | 0.6 | 9 | 7 | 10 | – | – | – | – |
| O=C(NC1CC1)c1ccc(CSCc2ccccc2Cl)o1 [MMV007803] | – | – | – | – | -6.5 | -0.2 | 0.3 | -1.7 |
| Nc1ccc(C(=O)Nc2ccc(-c3nc4ccccc4o3)cc2)cc1 [MMV007920] | – | – | – | – | 4.7 | -0.7 | 7 | 11 |
| COc1ccc(CN2CCOc3ccc(C(C)(O)CN(C)C)cc3C2)cc1C (stereo not shown) [MMV008439] | -5 | -3.4 | 0.3 | 0 | – | – | – | – |
| Cc1cc(C(=O)Nc2cnn(Cc3ccc(Cl)cc3Cl)c2)no1 [MMV009054] | -14 | -16 | -1.8 | -2 | – | – | – | – |
| O=C(C1CCN(c2nnnn2-c2ccccc2)CC1)N1CCc2ccccc2C1 [MMV009135] | – | – | – | – | -1.2 | 6 | 0.1 | 0.1 |
| COc1ccc(-c2cnc3ccc(NCc4ccc(S(N)(=O)=O)cc4)nn23)cn1 [MMV010545] | – | – | – | – | -3.2 | 7 | 0.8 | 3.6 |
| COc1cc(-c2cc(-c3ccc(S(C)(=O)=O)cc3)cnc2N)ccc1O [MMV010576] | – | – | – | – | 0.5 | 0.9 | 1.1 | 4 |
| c1csc(-c2cnc3sc(NCC4CCOCC4)nn23)c1 [MMV010764] | 14 | 19 | 14 | 16 | – | – | – | – |
| Cc1cc(Nc2ccc(C(F)(F)F)cc2)n2ccnc2n1 [MMV011229] | – | – | – | – | -1 | 6 | -0.9 | 1.4 |
| COc1ccc(CCN2CCC(NCc3cccc(N(C)C)c3)CC2)cc1 [MMV011511] | – | – | – | – | 0.4 | 9 | 5.7 | 3.6 |
